pEC50: −log10 of the molar value.
Key:
[1] = molecular target: T1, Cannabinoid Receptor 1 (CB1R), human recombinant CB1 (Homo sapiens, UniProt P21554); assay: CB1R radioligand experiment on membranes from HEK293 cells over-expressing human recombinant CB1; format: binding; settings: human recombinant CB1, radioligand [3H]CP-55,490, n=3
T1 construct: purchased Perkin-Elmer; host or cells: HEK293
Protocol: (§1) Visnadin was evaluated for its ability to activate Cannabinoid Receptor 1 (CB1R) and Cannabinoid Receptor 2 (CB2R).
CB1R experiments were performed using membranes from HEK293 cells over-expressing human recombinant CB1, as described by the manufacturer (Perkin-Elmer) and using [3H]CP-55,490 as the radioligand.
(§2) Data of active compounds are expressed in Ki (mM) and are means±SEM of n=3 determinations.
(§3) The values that are stated for each of the compounds is an EC50 value. This is defined as the molar concentration of an agonist, which produces 50% of the maximum possible response for that agonist. The values documented are in micromolar units.

[2] = molecular target: T2, Cannabinoid Receptor 2 (CB2R), human recombinant CB2 (Homo sapiens, UniProt P34972); assay: CB2R radioligand experiment on membranes from HEK293 cells over-expressing human recombinant CB2; format: binding; settings: human recombinant CB2, radioligand [3H]CP-55,495, n=3
T2 construct: purchased Perkin-Elmer; host or cells: HEK293
Protocol: as §1
CB2R experiments were performed using membranes from HEK293 cells over-expressing human recombinant CB2, as described by the manufacturer (Perkin-Elmer), and using [3H]CP-55,495 as the radioligand.
as §2, §3

T2 sequence (P34972 whole entry): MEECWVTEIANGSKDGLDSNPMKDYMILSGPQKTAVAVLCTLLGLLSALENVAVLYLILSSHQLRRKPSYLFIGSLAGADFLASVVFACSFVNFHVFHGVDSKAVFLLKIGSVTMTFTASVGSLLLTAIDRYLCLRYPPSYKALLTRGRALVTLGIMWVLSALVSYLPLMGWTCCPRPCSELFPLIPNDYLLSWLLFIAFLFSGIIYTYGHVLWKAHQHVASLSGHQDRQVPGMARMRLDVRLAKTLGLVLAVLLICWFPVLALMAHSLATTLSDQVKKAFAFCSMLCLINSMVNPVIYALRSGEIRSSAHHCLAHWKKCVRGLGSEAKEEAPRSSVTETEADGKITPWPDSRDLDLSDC
T1 sequence (P21554 whole entry): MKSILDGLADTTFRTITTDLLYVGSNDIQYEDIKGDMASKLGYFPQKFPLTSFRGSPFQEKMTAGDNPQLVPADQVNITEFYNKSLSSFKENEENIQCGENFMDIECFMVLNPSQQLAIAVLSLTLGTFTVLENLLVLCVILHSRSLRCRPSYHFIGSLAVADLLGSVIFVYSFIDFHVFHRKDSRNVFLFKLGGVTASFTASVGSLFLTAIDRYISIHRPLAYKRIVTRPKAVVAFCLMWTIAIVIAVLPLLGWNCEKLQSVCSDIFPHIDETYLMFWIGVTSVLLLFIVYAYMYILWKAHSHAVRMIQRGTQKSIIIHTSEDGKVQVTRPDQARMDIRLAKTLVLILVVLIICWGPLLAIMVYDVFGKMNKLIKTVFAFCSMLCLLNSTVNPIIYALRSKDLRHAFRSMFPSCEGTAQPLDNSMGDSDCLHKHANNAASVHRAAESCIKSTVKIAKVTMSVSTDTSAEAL

pEC50 [1]: < 4.60
pEC50 [2]: 4.85
SMILES: CCC(C)C(=O)O[C@@H]1[C@H](OC(C)=O)c2c(ccc3ccc(=O)oc23)OC1(C)C (some centres unmarked) [visnadin]

Reference: patent US20080167284A1, “Hair And/Or Scalp Care Compositions Incorporating Visnadin” (priority 2005, published 2008)
